Holding throughout (format): cell-based
The subject of assay [1] is TLR4 with MD2 or CD14 co-receptor. Kind of assay: Reporter gene (SEAP) PAMP assay in NIH3T3 cells expressing TLR4 with MD2 or CD14 co-receptor. More on the design: key to PAMP assay (NIH3T3 cells) Induction with compound alone / PAMP assay (NIH3T3 cells) Induction with compound + LPS: 0: no effect of the compound alone/no effect of the compound in addition to LPS alone; +: small effect of the compound alone/small effect of the compound in addition to LPS alone; ++: intermediate effect of the comp. alone/intermediate effect of the comp. in add. to LPS alone; +++: strong effect of the compound alone/strong effect of the compound in addition to LPS alone. Conditions: for Co-Receptor/s: co-receptor (MD2/CD14) via which the effect occurs; for Co-Receptor/s / Activity: summary of FIGS. 6A-6V; for Activity: type of effect (activation/inhibition) on TLR4. The source says: FIGS. 6A-6V show the dose response inhibitor/activator effects of the designed peptides using a reporter gene assay. The reporter gene assay is composed of NIH3T3 cells transfected with either MD2 or CD14 along with TLR4 and the NF-κB-inducible reporter gene Secreted Alkaline Phosphatase (SEAP) to monitor TLR4 activation (Burger-[…] al. 2010, A new cell-based innate immune receptor assay for the examination of receptor activity, ligand specificity, signaling pathways and the detection of pyrogens. […] The receptors are coupled to for the detection of inhibitory activity, cells were treated with the peptide prior to exposure to LPS and the response to LPS is measured at variable peptide doses (as labeled). The detection of cell activation was performed using the peptide alone, at variable doses, as indicated in the respective graphs. The following presents in more details the experimental procedures. Experimental setup: The cell-based Assay is performed with different NIH3T3 reporter cell lines (NIH 3T3 PRR SEAP-TLR4/CD14 or -TLR4/MD2) and the control cell line NIH 3T3 SEAP. The NIH3T3 SEAP cell line is used in order to determine the background of the alkaline phosphatase expression. It is a cell line stably transfected with only the reporter gene plasmid. For each assay a vial of the master cell bank is revitalized and seeded in a standard cell culture flask (75 cm^2 T-Flask) at day one. Cells are cultured in 20 ml culture media (DMEM supplemented with 10% FCS (heat inactivated), 50 units/ ml penicillin, 0.05 mg/ ml streptomycin and 2 mmol/ L L-glutamine). The cells are cultured at 37° C. in a 5% CO2 humidified atmosphere. At Day 1: For the PAMP Assay cells are seeded in a 96-well plate at a density of 0.3.10^5 cells/well in a final volume of 100 μl culture media (DMEM, 10% FCS (heat inactivated)). To ensure equal culture conditions the 96-well cell culture plates are placed side by side and cultivated in a humidified CO2 incubator (37° C. and 5% CO2). […] After a cultivation period of 24 h the media is removed and replaced with the respective volume of fresh media (DMEM, 0.5% FCS (heat inactivated)).The lyophilized peptides are stored in a freezer at -20° C. upon arrival. For the experiments they are dissolved in DMSO (to the highest possible concentration). Before opening the peptides are allowed to equilibrate to room temperature (in order to reduce the uptake of moisture). For each experiment the stock solution is diluted in DMEM to the appropriate working concentration. […] Sonication was also used to help dissolve the peptides. Immediately after replacing the media, the diluted peptides are applied in a serial dilution to the cells and directly after that the agonist is added to the cells. After adding peptide and […] the final volume in each well of a 96 well plate amounts 100 μl/well. The culture medium containing 0.5% FCS is used as a negative reference item. The induction is performed for 18 h at 37° C. and 5% CO2. At Day 3: To determine the final SEAP value, 50 μl of the supernatant is carefully transferred in a new 96-well plate (Greiner-F-plate) and 50 μl of the substrate (pNPP; p-nitrophenyl phosphate) is added. SEAP catalyzes the hydrolysis of pNPP to the final product para-nitrophenol (yellow) which can be detected by a photometric analysis using an UV-VIS reader at 405 nm. […] The results of FIGS. 6A-6V with respect to peptide activity are summarized in Table 1 above with respect to the type of effect of the respective peptide (activation/inhibition) and with respect to the corresponding co-receptor (MD2/CD14). Data concerning SEQ ID No. 22 with respect to co-receptor CD14 is in preparation.
(A reporter such as luciferase makes a cellular process visible.)

In the next assay the test system is Raw 264.7 cells. Description: Raw cells activation, FACS of activation markers CD80, CD40, CD86, MHC-II. Conditions: 24 h and 48 h, compared to negative control and other peptides. The procedure:
Additional testing was carried out to verify the activation levels if the peptides using expression level of activation markers. Raw cells were activated using the peptides of SEQ ID Nos. 1, 4 and 5 and a control peptide. The analysis of the activation level was done by examining the expression level of few activation markers. In order to verify the obtained results, two repeats were done. Standard Raw cells activation and FACS staining protocol were carried out.
The following describes the experimental design in detail. 5-7.5X10^6 Raw 264.7 cells were seeded in 6-well plates 24 h prior to the stimulation in 3ml/well of DMEM containing 4 mmol/L glutamine and 10% heat-inactivated FCS. At the next day, cells were treated with bacterial LPS (10 or 100 ng/ml, E coli, sigma) as positive control, and with peptides SEQ ID Nos. 1, 4, 5 and the control peptide (50, 100 and 200 μM for each peptide). The volume of the incubation was 1.5 ml for each well. After 24 or 48 h (two experiments), the concentrations of nitrite were measured in the culture supernatant by the Griess assay while absorbance was read at 550 nm. Simultaneously, the cells were stained for surface receptors: CD40, CD80, CD86 and MHC-II with the appropriate antibodies (biolegend) and analysed by flow cytometry using FSC express 3 software. […]

A further assay deals with whole human blood. Kind of assay: IL-1β ELISA after 24-hour incubation with whole human blood. More on the design: key: 0: no effect of the compound alone/no effect of the compound in addition to LPS alone; +: small effect of the compound alone/small effect of the compound in addition to LPS alone; ++: intermediate effect of the comp. alone/intermediate effect of the comp. in add. to LPS alone; +++: strong effect of the compound alone/strong effect of the compound in addition to LPS alone. Conditions: for IL-1β ELISA after blood activation Induction with compound + LPS: LPS 100 pg/ml. The method, then:
One attribute of TLR-4 activation is the release of the pro-inflammatory cytokine Interleukin-1β (IL1β). Several of our discovered peptides were tested for IL1β induction by ELISA following a 24-hour incubation with whole human blood. IL1β induction was measured with increasing dosage of the peptides alone, or with a fixed dosage of LPS (100 pg/ml).

In the next assay the target is T1, TLR4/MD2 (Homo sapiens, UniProt O00206+Q9Y6Y9).
T1 construct: expressed in transfected cells; host or cells: NIH3T3 (NIH 3T3 PRR SEAP-TLR4/MD2)
T1 sequence (O00206 24-839): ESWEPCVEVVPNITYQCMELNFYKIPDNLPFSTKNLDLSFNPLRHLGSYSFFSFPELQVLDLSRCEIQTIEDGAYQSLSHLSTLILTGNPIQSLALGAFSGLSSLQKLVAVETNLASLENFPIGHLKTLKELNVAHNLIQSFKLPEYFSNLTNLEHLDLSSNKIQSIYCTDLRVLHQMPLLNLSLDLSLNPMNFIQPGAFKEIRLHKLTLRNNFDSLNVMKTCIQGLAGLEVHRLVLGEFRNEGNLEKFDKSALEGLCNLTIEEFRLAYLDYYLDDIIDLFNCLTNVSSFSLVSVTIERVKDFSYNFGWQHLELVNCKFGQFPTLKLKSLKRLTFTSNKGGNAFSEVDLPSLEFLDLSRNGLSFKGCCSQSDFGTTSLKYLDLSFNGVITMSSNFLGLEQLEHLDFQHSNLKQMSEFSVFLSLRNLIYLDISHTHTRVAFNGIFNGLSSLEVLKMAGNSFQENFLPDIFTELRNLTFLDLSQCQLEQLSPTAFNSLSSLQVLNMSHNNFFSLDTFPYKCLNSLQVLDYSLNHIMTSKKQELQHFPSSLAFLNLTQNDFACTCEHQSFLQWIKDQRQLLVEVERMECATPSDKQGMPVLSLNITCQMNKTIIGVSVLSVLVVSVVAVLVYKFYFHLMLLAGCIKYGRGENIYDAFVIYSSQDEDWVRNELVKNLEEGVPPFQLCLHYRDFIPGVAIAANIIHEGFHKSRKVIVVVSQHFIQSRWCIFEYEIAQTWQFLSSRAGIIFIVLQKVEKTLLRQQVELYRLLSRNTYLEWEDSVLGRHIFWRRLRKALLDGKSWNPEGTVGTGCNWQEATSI
T1 sequence (Q9Y6Y9 19-160): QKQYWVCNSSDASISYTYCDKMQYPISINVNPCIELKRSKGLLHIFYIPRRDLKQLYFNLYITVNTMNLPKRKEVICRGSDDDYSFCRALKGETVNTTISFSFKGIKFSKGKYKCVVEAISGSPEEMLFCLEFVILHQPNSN
Description: Reporter gene assay, NIH3T3 cells TLR4 with MD2 co-receptor. The text has this: FIGS. 6A-6V present peptide activity using NIH3T3 cells that express TLR4, with either the MD2 co-receptor (top) or CD14 co-receptor (bottom), for peptides of SEQ ID Nos. 1-22, respectively, according to some embodiments of the invention. FIGS. 6A-6V show the dose response inhibitor/activator effects of the designed peptides using a reporter gene assay. The reporter gene assay is composed of NIH3T3 cells transfected with either MD2 or CD14 along with TLR4 and the NF-κB-inducible reporter gene Secreted Alkaline Phosphatase (SEAP) to monitor TLR4 activation (Burger-Kentischer et al. 2010, A new cell-based innate immune receptor assay for the examination of receptor activity, ligand specificity, signaling pathways and the detection of pyrogens. J Immunol Methods. 358(1-2): 93-103). […] The receptors are coupled to for the detection of inhibitory activity, cells were treated with the peptide prior to exposure to LPS and the response to LPS is measured at variable peptide doses (as labeled). […]
At Day 3: To determine the final SEAP value, 50 μl of the supernatant is carefully transferred in a new 96-well plate (Greiner-F-plate) and 50 μl of the substrate (pNPP; p-nitrophenyl phosphate) is added. SEAP catalyzes the hydrolysis of pNPP to the final product para-nitrophenol (yellow) which can be detected by a photometric analysis using an UV-VIS reader at 405 nm. […]

No end group written: not given here.

On to LAWYFGRKIKE (Inhibitor) [SEQ ID No. 11], for which, in assay [1], the Co-Receptor/s entry is “MD2” and the Activity entry was “Inhibitor”. Also, the “stimulation of raw cells (expression of activation markers)” value in the assay on Raw 264.7 cells is listed as “most promising stimulator”.
Take “RYETMSIMIKSGGKY (not fully specified) [SEQ ID No. 1 (M1)]”: in assay [1], the Co-Receptor/s result is “MD2/CD14”, the “PAMP assay (NIH3T3 cells) Induction with compound + LPS” value (“PAMP assay … with compound + LPS” below) is “+”, the “PAMP assay (NIH3T3 cells) Induction with compound alone” value (from here on “PAMP assay … with compound alone”) is listed as “+” and the Activity result is “Activator”. Also, in the assay on whole human blood, the “IL-1β ELISA after blood activation Induction with compound + LPS” value (shortened to “IL-1β ELISA … with compound + LPS”) was “+++” and the “IL-1β ELISA after blood activation Induction with compound alone” value (“IL-1β ELISA … with compound alone” for short) was “++”.
“RYETMSIMIKSGGKY-(methyl group replacing C-terminus) (RYETMSIMIKSGGKY-CH3) [SEQ ID No. 1 (M2)]”: in assay [1], the Co-Receptor/s result is given as “MD2/CD14”, the “PAMP assay … with compound + LPS” value is recorded as “+”, the “PAMP assay … with compound alone” value is given as “+” and the Activity result is on record as “Activator”. In addition, in the assay on whole human blood, the “IL-1β ELISA … with compound + LPS” value was found to be 0 and the “IL-1β ELISA … with compound alone” value was 0.
On to “c[MLSFRM] (cyclic; Activator, cyclic) [SEQ ID No. 6]”, for which, in assay [1], the Co-Receptor/s result is reported as “MD2/CD14”, the “PAMP assay … with compound + LPS” value is on record as “++”, the “PAMP assay … with compound alone” value is “++” and the Activity entry is “Activator”. In addition, in the assay on whole human blood, the “IL-1β ELISA … with compound + LPS” value is reported as “+++” and the “IL-1β ELISA … with compound alone” value was “+”.
For “c[WMLGMESI] (cyclic; Activator, cyclic) [SEQ ID No. 7]”, in assay [1], the Co-Receptor/s entry was “CD14” and the Activity result is “Activator”. Besides, in the assay with TLR4/MD2, the “activation with respect to MD2” value is given as “weak activator”.

Values taken from patent publication US20200247849A1, “PEPTIDE AGONISTS AND ANTAGONISTS OF TLR4 ACTIVATION” (PEPTICOM LTD, priority 2016, published 2020).
